In patent publication US9012455B2, “Pharmaceutical compositions containing an indoyl isoquinoline containing compound and uses thereof” (The Regents of the University of California, priority 2006, dated 2015):
Where “and” joins values, the source holds several entries; their conditions need not be identical. Equal values may be shown once. Read-outs that look alike come from different tables or passages of the source.

Columns and labels:
[1] = test system: human blast crisis CML K562 cells; assay: percentage of apoptotic cells; type: cell-based
K562 cells = assay: Western blot of protein expression; type: cell-based, human; conditions: imatinib, absence of IBR2
Text: The inventors then examined the protein expression levels of Rad51, BCR-ABL and Stat5 by western blot analysis.

Ba/F3-p210 cells [2] = assay: Western blot of protein expression; type: cell-based, murine; conditions: 0.1-0.6 μM imatinib, absence of IBR2
Text: The inventors then examined the effects of co-treatment on Rad51, BCR-ABL, and Stat5 protein expression levels as described above.

Ba/F3-p210 cells [3] = assay: percentage of apoptotic cells; type: cell-based, murine; conditions: 48 hours
Text: Since Rad51 and BCR-ABL are in the same pathway essential for cell survival, it was contemplated that simultaneous treatment of Ba/F3-p210 cells with both inhibitors may synergistically enhance the cell death. […] Exemplary results are depicted in FIGS. 4A and 4B.

[4] = test system: Ba/F3 cells carrying BCR-ABL expression; assay: Western blot of BCR-ABL/Stat5/Rad51 pathway; type: cell-based, murine
Protocol: (§1) To examine the consequence of the BCR-ABL/Stat5/Rad51 regulatory pathway, the protein expression as well as their phosphorylation states in IBR2-treated cells were analyzed by Western blot. […] On the contrary, there was little effect on Ba/F3 parental cells. The decrease of Rad51 expression in IBR2-treated cells is consistent with the inventors′ earlier observation that IBR2 induces Rad51 degradation mediated by proteasome in breast cancer cells. Furthermore, the inventors performed the same set of experiments using compound B6, which has no inhibitory activity to Rad51 in vitro.

Rad51 [5] = target: T1, Rad51 (Homo sapiens, UniProt Q06609); assay: gel filtration profile of Rad51 (multimerization); type: biochemical; conditions: data not shown
T1 sequence (Q06609 1-339): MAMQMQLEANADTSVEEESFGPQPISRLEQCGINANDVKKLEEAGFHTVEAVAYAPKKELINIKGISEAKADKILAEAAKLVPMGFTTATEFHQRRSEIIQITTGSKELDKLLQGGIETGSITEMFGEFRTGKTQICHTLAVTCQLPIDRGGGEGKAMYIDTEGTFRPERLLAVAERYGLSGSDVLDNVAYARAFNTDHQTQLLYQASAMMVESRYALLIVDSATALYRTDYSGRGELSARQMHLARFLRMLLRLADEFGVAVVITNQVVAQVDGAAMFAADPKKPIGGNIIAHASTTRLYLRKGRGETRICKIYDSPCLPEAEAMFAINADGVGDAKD
Protocol: To test this possibility, the inventors then compared the gel filtration profile of Rad51 incubated in the presence or absence of IBR2. […] The inventors then aligned the 3D structure of IBR2 with the BRC4 hairpin structure and the Rad51 oligomerization motif together. […] Therefore, one possibility of the action mechanism is that IBR compounds, by mimicking Phe1524 of BRCA2, may block the entrance of the hydrophobic binding pocket on Rad51 core domain, and inhibit BRCA2/Rad51 interaction as well as Rad51 multimerization.

BRC repeat = assay: SPR compound pretreatment, immobilized BRC repeat; type: binding
Protocol: (§2) To determine whether it was Rad51 or BRC repeat that actually served as a direct target of these compounds, surface plasmon resonance (SPR) was employed to detect the inhibition of protein binding by compound pretreatment. In principle, one of the proteins was attached to the sensor chip, and IBR compounds were allowed to pass through the surface; then, the binding of the second protein was measured. If IBR compounds bind the immobilized protein, the binding of the second protein will be reduced; otherwise, the binding capacity of second protein will be mostly retained.

Rad51 [6] = target: T1, Rad51; assay: SPR compound pretreatment, immobilized Rad51; type: binding
Protocol: as §2

Ba/F3 parental cells [7] = assay: XTT growth inhibition; type: cell-based, murine; conditions: 48 hr
Ba/F3-T315I = assay: cell growth (viable cell count / XTT); type: cell-based; conditions: 0 to 20 μM, up to three days, dose-dependent
Protocol: (§3) The inventors also examined the effect of IBR2 on growth of Ba/F3 expressing wild type Bcr-Abl-P210 and Bcr-Abl mutant isoform T315I. […] FIG. 9 illustrates the effect of IBR2 on parental Ba/F3 cells and Ba/F3 cells expressing WT Bcr-Abl or Bcr-Abl mutant isoform T315I cells. […] After 72 hours of incubation, proliferation was measured by XTT-based method. Absorbance was measured at 490 nm in a microplate reader. Bars are SD, n=2.

Ba/F3-P210 = assay: cell growth (viable cell count / XTT); type: cell-based; conditions: 0 to 20 μM, up to three days, dose-dependent
Protocol: as §3

[8] = test system: Rad51 foci formation in MCF-7 breast cancer cells; assay: IR-induced Rad51 foci formation assay; type: cell-based
Protocol: These compounds were then tested for their effects on the IR-induced Rad51 foci formation in MCF-7 breast cancer cells. […] These compounds were then tested for their effects on the IR-induced Rad51 foci formation in MCF-7 breast cancer cells as also described in WO 2006/044933.

Ba/F3-T315I cells [9] = assay: Western blot of protein expression; type: cell-based, murine; conditions: 20 μM IBR2 alone, within 12-24 hours
Text: Direct targeting to Rad51 may provide a potential strategy to overcome this type of resistance. […] Next, the inventors examined the effects of IBR2 treatment on the protein expression levels in these cells by western blot.

Ba/F3-T315I cells [10] = assay: induction of cell death; type: cell-based, murine; conditions: 20 μM IBR2 alone
BRC-RAD51 interaction = target: T2, BRC-RAD51 interaction (Homo sapiens, UniProt Q06609); assay: inducible reverse yeast two-hybrid screening; type: cell-based
T2 construct: expressed in transfected cells; host or cells: yeast strain harboring a TetOp-driven URA3 gene
T2 sequence (Q06609 1-339): T1 sequence (Q06609 1-339)
Text: Briefly, two fusion proteins, the TetR-BRC fusion protein (TetR/NCB, constitutively expressed) and the Rad51-activation domain fusion protein (AD/Rad51, expressed under the GAL1 promoter), worked together as a transcriptional activator in a yeast strain harboring a TetOp-driven URA3 gene. The interaction between these two fusion proteins induced the expression of URA3 gene, and the toxic metabolite from 5-FOA in the medium caused cell death. If the small molecules tested inhibited TetR/BRC/AD/Rad51 interaction, URA3 expression was abolished and cells are allowed to grow.
The reverse yeast two-hybrid system is used to perform the second round screening of the modified small compounds. TetR/NCB fission protein which contains BRC1-4 repeats (TetR/NCB) are expressed constitutively; the expression of a RAD51-GAL4 Activation Domain fusion protein (AD/RAD51) is rendered galactose-inducible under GAL1 promoter. Yeast is grown on a galactose medium containing 5-FOA. The assay is performed on 96-well plates. Small molecule compounds are added into the medium at the concentration of 10 mM in the total volume of 100 ml. The compounds that can disrupt the BRC-RAD51 interaction are identified by the viability of the yeast.

[11] = test system: Ba/F3 cells expressing T315I BCR-ABL; assay: XTT growth inhibition; type: cell-based, murine; conditions: Mus musculus, BaF3, 48 hr
Protocol: (§4) In CML cells, the constitutively active BCR-ABL is responsible for maintaining high levels of Rad51 activity by direct activation through phosphorylation and transcriptional up-regulation mediated by STAT5. It is therefore contemplated that inhibition of Rad51 activity by IBR2 may have detrimental effects on CML. To test this possibility, murine hematopoietic Ba/F3 progenitor cells expressing different versions of BCR-ABL (e.g., wild-type, T315I, and E255K) mutants were treated with IBR2 at indicated concentrations for 48 hr, and growth inhibition was then determined by XTT (sodium 3′-[1-(phenylaminocarbonyl)-3,4-tetrazolium]-bis(4-methoxy-6-nitro) benzene sulfonate) assay. […] To further test whether the growth inhibition was resulted from cell death or cytostatic effect of IBR2 treatment, the inventors then determined the percentages of annexin V positive cells, which is indicative of cell death, after IBR2 treatment.

Ba/F3 parental cells [12] = assay: Western blot of protein expression; type: cell-based, murine; conditions: IBR2-treated
Protocol: To examine the consequence of the BCR-ABL/Stat5/Rad51 regulatory pathway, the protein expression as well as their phosphorylation states in IBR2-treated cells were analyzed by Western blot.

[13] = test system: BCR-ABL-expressing Ba/F3 cells; assay: XTT growth inhibition; type: cell-based, murine; conditions: 48 hr
Protocol: as §4
as §1, with “Furthermore, the inventors performed the same set of experiments using compound B6, which has no inhibitory activity to Rad51 in vitro.” left out

[14] = test system: Ba/F3 cells expressing WT, T315I or E255K BCR-ABL; assay: annexin V positive cells (apoptosis); type: cell-based, murine; conditions: dose dependent
Protocol: as §4

Ba/F3-T315I cells [15] = assay: survival of NOD/SCID mice injected with Ba/F3-T315I cells; type: in vivo; conditions: 100 mg/kg, 30 days, vs vehicle, p<0.01
Ba/F3-p210 cells [16] = assay: median-effect and Combination Index analysis (Chou's method); type: cell-based, murine; conditions: Mus musculus, read-out: median-effect dose (Dm)
Rad51-BRC repeat binding = target: T3, Rad51-BRC repeat binding (Homo sapiens, UniProt Q06609); assay: SPR (Biacore) competitive binding assay, solution competition format
T3 sequence (Q06609 1-339): T1 sequence (Q06609 1-339)
Protocol: Therefore, the 5-position of indole ring may provide a potential site for further modification. The inventors also noticed that there is a chiral center in the IBR compounds as marked by an asterisk in FIG. 1B. Initially, the inventors separated these two enantiomers by chiral HPLC (Regis Whelk-O1, Hexane:isopropanol=75:25) as shown in chromatogram of FIG. 1C and determined the absolute configuration by X-ray crystallography. […] Here, the inhibition of Rad51-BRC repeat binding was analyzed by SPR in a solution competition format.
Successful entities are then analyzed with Biacore's surface plasmon resonance (SPR) technique in a solution competition format to determine their median inhibitory concentration on Rad51. Briefly, the assays are performed on a Biacore 3000 (Biacore Inc.) using a Sensor chip NTA (Biacore Inc.) for capturing His-tagged Rad51 protein. The concentration of BRC protein is kept constant. Compounds are dissolved in DMSO at 20 mM and serially diluted in each BRC test sample. The assays are performed at 25° C. in running buffer (10 mM HEPES, 150 mM NaCl, 0.1% DMSO). Relative BRC-Rad51 binding percentage in the presence of inhibitors is calculated. The experiments are carried out in triplicate and averaged. The best-fit competitive binding curve is drawn and median inhibitory concentration of each candidate compound is obtained. The results of these assays are thought to help to establish a quantitative structure-activity relationship, which in turn guides further optimization of the positive hits.
To further determine the binding affinity of IBR2 to Rad51, the inventors then used a Biacore competitive binding assay.

[17] = SPR, solution competition format, read-out: median inhibition concentration

Cc1ccc(NC(=O)c2ccc(CN3CCN(C)CC3)cc2)cc1Nc1nccc(-c2cccnc2)n1 [imatinib] was tested, and the apoptotic percentage ([1]; imatinib 0.1 μM) was “about 9.7%”, the apoptotic percentage ([1]; imatinib 0.2 μM) was about 11.8% and the apoptotic percentage ([1]; imatinib 0.6 μM) was about 28.1%. The “Rad51, BCR-ABL, p-BCR-ABL, p-Stat5 levels” value (K562 cells) was “decreased in a dose dependent manner”, the Stat5 protein level (K562 cells) was “did not affect” and the “Rad51, BCR-ABL, p-BCR-ABL and p-Stat5 levels” value (Ba/F3-p210 cells [2]) was “modestly decreased”. For the same compound, the Stat5 protein level (Ba/F3-p210 cells [2]) was “did not influence”, the apoptotic cells (Ba/F3-p210 cells [3]; imatinib 0.1 μM) was “about 6.8%” and the apoptotic cells (Ba/F3-p210 cells [3]; imatinib 0.2 μM) was ~7.6% and ~10%. It also gave an apoptotic cells (Ba/F3-p210 cells [3]; imatinib 0.4 μM) of about 23.1% and an apoptotic cells (Ba/F3-p210 cells [3]; imatinib 0.6 μM) of about 39.3%.
With O=S(=O)(Cc1ccccc1)N1C=Cc2ccccc2C1c1c[nH]c2ccccc12 (centres unmarked) [IBR2] the “Rad51, BCR-ABL and phosphorylated Stat5 (p-Stat5) levels” value [4] was “dose-dependent decreases”, the “c-Abl, p-c-Abl and total Stat5 protein” value [4] was “unchanged” and the apoptotic percentage ([1]; IBR2 15 μM alone) was about 10%. The “Rad51 elution profile (multimerization)” value (Rad51 [5]) was “major peak consistent with the molecular weight of a monomer”, the “binding of immobilized BRC repeat to Rad51 after compound pretreatment” value (BRC repeat) was “did not affect” and the “binding of BRC repeat to immobilized Rad51 after compound pretreatment” value (Rad51 [6]) was “lost the ability to bind BRC repeat”. The proliferation (Ba/F3 parental cells [7]) was “much less”, the cell growth (Ba/F3-T315I) was “significantly inhibited the growth” and the cell growth (Ba/F3-P210) was “significantly inhibited the growth”. For the same compound, the “IR-induced Rad51 foci formation” value [8] was “dramatically reduced Rad51 foci formation”, the “IR-induced Rad51 foci formation” value ([8]; listed as NS7798) was “positive” and the “protein expression levels of Rad51, BCR-ABL, p-BCR-ABL and p-Stat5” value (Ba/F3-T315I cells [9]) was “dramatically reduced”. The cell death (Ba/F3-T315I cells [10]) was “over 80%”, the yeast two-hybrid screening (BRC-RAD51 interaction) was “positive” and the IC50 [11] was 12000 nM. The “protein expression and phosphorylation” value (Ba/F3 parental cells [12]) was “little effect”, the proliferation [13] was “inhibited the proliferation” and the “apoptosis (annexin V positive cells)” value [14] was “induced apoptosis”. The survival of mice (Ba/F3-T315I cells [15]) was “significantly prolonged survivals”, the EC50 (Ba/F3-p210 cells [16]) was 13900 nM and the IC50 (Rad51-BRC repeat binding; Biacore competitive binding assay, read-out: IC50) was 110 nM. For the same compound, the apoptotic cells (Ba/F3-p210 cells [3]; IBR2 5 μM) was “about 1.7%”, the apoptotic cells (Ba/F3-p210 cells [3]; IBR2 10 μM) was about 4.1% and the apoptotic cells (Ba/F3-p210 cells [3]; IBR2 15 μM alone) was < 10% and ~12.6%. It also gave an apoptotic cells (Ba/F3-p210 cells [3]; IBR2 20 μM) of about 57.1%.
Work on O=S(=O)(Cc1ccccc1)N1C=Cc2ccccc2[C@@H]1c1c[nH]c2ccccc12 [R-IBR2] yielded an IC50 (Rad51-BRC repeat binding; [17]) of about 1 nM.
In the case of O=S(=O)(Cc1ccccc1)N1C=Cc2ccccc2C1c1c[nH]c2ccccc12 (racemic) [IBR2], the IC50 (Rad51-BRC repeat binding; [17]) is reported as about 115 nM.
